# According to patent US11376255B2, “Thiocarbamate derivatives as A2A inhibitors, pharmaceutical composition thereof and combinations with anticancer agents” (iTeos Belgium SA, priority 2018, dated 2022):
# What was measured:
# [1] = test system: A20 mouse B-cell tumor cells; test: Syngeneic A20 experimental lymphoma model in combination with anti-PD-L1; format: in vivo, BALB/c mice; conditions: for TGI: day 23
# Description: In this study the anti-tumor efficacy of Compound 7 was assessed either as single agent (monotherapy) or in combination with antagonist anti-Programmed Death-Ligand 1 (anti-PD-L1) monoclonal antibody (10F.9G2, BioXcell) in a model of B cell lymphoma model. (NCR-A2A-031).
# BALB/c female mice (8 weeks old) were inoculated with A20 mouse B-cell tumor cells, subcutaneously in the right lower flank region (day 0). When tumors reached a size of about 50 mm^3 (Day 7), mice were allocated randomly into groups and treatment was initiated.
# Hepa 1-6 tumor cells = test: Syngeneic HEPA1-6 mouse liver tumor model; format: in vivo, C57BL/6 mice; conditions: 3 mg/kg p.o. BID, single agent; calculated on Day 22
# Description: This study evaluated the anti-tumor activity of Compound 7 in a mouse hepatoma model (NCR-A2A-032).
# C57BL/6 female mice (8 weeks old) were inoculated subcutaneously in the right flank region with Hepa 1-6 tumor cells (on day 0). When tumor size reached about 50 mm^3 (on Day 4), mice were randomly allocated into experimental groups and treatment was initiated from day 4 to 25.
# Human CD3+ T cells = test: Human T cell activation assay in presence of ATP (CFSE proliferation, TNFα AlphaLISA); conditions: ATP 100 μM, 72 hours
# Description: PBMC and CD3^+ T cell isolation. Venous blood from healthy volunteers was obtained via ImmuneHealth (Centre Hospitalier Universitaire Tivoli, La Louviere, Belgium). Peripheral blood mononuclear cells (PBMCs) were collected by density gradient centrifugation, using SepMate-50 tubes (StemCell Technologies, Grenoble, France) and Lymphoprep (Axis-shield, Oslo, Norway) according to the manufacturer's instructions. PBMCs were stored in heat inactivated foetal bovine serum (hiFBS; Gibco, ThermoFisher Scientific, Merelbeke, Belgium) containing 10% DMSO in liquid nitrogen until required. PBMCs were thawed and washed into PBS (with 10% hiFBS) and labelled with 1 μM CFSE (Life Technologies) at room temperature for 5 minutes. Cells were washed into StemCell isolation buffer and CD3^+ T cells were isolated by immunomagnetic negative selection, using the EasySep Human T Cell Isolation Kit (StemCell Technologies) as per manufacturer's instructions.
# Human T cell activation assay. […]
# Cells were placed in a 37° C. humidified tissue culture incubator with 5% CO2 for 72 hours. […] Proliferation of CD4^+ T cells was assessed by determining CFSE dilution by flow cytometry using a BD LSRFortessa (BD Biosciences). Supernatants were later thawed and TNFα was quantified using the AlphaLISA Human TNFα Biotin-Free Detection Kit (AL325; Perkin-Elmer, Zaventem, Belgium), according to the manufacturer's instructions.
# CT26 mouse tumor cells = test: Syngeneic CT26 experimental colon cancer model in combination with Doxorubicin and/or anti-TIGIT mAb
# MCA205 tumor cells = test: Syngeneic MCA205 experimental fibrosarcoma model in combination with Oxaliplatin; format: in vivo, C57BL/6 mice; conditions: Oxaliplatin 10 mg/kg i.p. single administration at D11, single agent; p=0.0202
# Description: MCA205 tumor cells were inoculated subcutaneously into the right flank of C57BL/6 mice. When tumors reached an average size of about 80 mm^3, mice were randomly allocated into groups.
structure (smiles),measurement,setting,value
"C[S@@+]([O-])CCOc1cc(N2CCN(CCn3c(=O)sc4c3nc(N)n3nc(-c5ccco5)nc43)CC2)c(F)cc1F (racemic) [Compound 7, (R,S)-5-amino-3-(2-(4-(2,4-difluoro-5-(2-(methylsulfinyl)ethoxy)phenyl)piperazin-1-yl)ethyl)-8-(furan-2-yl)thiazolo[5,4-e][1,2,4]triazolo[1,5-c]pyrimidin-2(3H)-one]",TGI,[1]; Compound 7 0.3 mg/kg p.o. BID in combination with anti-PD-L1 mAb 5 mg/kg i.p. Q3D×3,76%
same,TGI,[1]; Compound 7 3 mg/kg BID in combination with anti-PD-L1 mAb 5 mg/kg i.p. Q3D×3,82%
same,interaction with anti-PD-L1 mAb on growth of established A20 tumor (statistical analysis),"[1]; combination with anti-PD-L1 mAb, p=0.017",synergises with anti-PD-L1 mAb
same,tumor growth inhibition (TGI),Hepa 1-6 tumor cells,44%
CCN(CC)c1ncnc2c1ncn2[C@@H]1O[C@H](COP(=O)(O)OP(=O)(O)C(Br)(Br)P(=O)(O)O)[C@@H](O)[C@H]1O [ARL67156],restoration of TNFα production inhibited by ATP,Human CD3+ T cells; CD39 inhibitors ARL67156 100 μM and POM-1 10 μM without compound 8a,approximately 50%
same,CD4+ T cell proliferation inhibited by ATP,Human CD3+ T cells; combination of CD39 inhibitors ARL67156 100 μM and POM-1 10 μM,almost completely rescued
COc1cccc2c1C(=O)c1c(O)c3c(c(O)c1C2=O)C[C@@](O)(C(=O)CO)C[C@@H]3O[C@H]1C[C@H](N)[C@H](O)[C@H](C)O1 [Doxorubicin],anti-tumor efficacy compared to anti-TIGIT mAb or Doxorubicin stand-alone,"CT26 mouse tumor cells; Doxorubicin 6 mg/kg in combination with anti-TIGIT mAb 1 mg/kg, p=0.008 and p=0.0002",improved anti-tumor efficacy
same,tumor growth,"CT26 mouse tumor cells; Doxorubicin 6 mg/kg on day 10 and 14, single agent, p=0.14",no significant effect on tumor growth
same,complete responders (CR),"CT26 mouse tumor cells; anti-TIGIT+Doxorubicin combination, out of 10 mice",one
O=C1[O][Pt]2([NH][C@@H]3CCCC[C@H]3[NH]2)[O]C1=O [Oxaliplatin],tumor growth compared to Vehicle,MCA205 tumor cells,significant delay in tumor growth
